Assay [1] deals with asthma and rhinitis animal models induced with ovalbumin. Description: FL and H2 domain peptides in ovalbumin-induced asthma and rhinitis animal models. The assay is classed as in vivo, BALB/c female mice.
The test system is the same in assay [2]. The description is as above. As to conditions: for inflammatory cells in bronchoalveolar lavage fluid (total cell number, leukocyte number) / level of IL-5 in bronchoalveolar lavage fluid: 20 mg/kg intraperitoneal, vs positive control (PBS). The assay is classed as in vivo, BALB/c female mice. On the procedure:
Particularly, 5 week old specific pathogen free BALB/c female mice (weight: approximately 20 g) were purchased from Orientbio Inc. (Seoul, Korea), followed by stabilization in an animal laboratory for 1 week. The mice were administered with 200 ? of PBS containing 1.3 mg of aluminum hydroxide (Sigma A8222) and 100 μg of ovalbumin (Sigma A5503) via intraperitoneal injection twice at a week interval, followed by sensitization. Then, 20 ? of PBS containing 200 μg of ovalbumin dissolved therein was administered via intranasal instillation on day 14, day 16, and day 18 to induce immune response. PBS was administered for the positive control and FL and H2 domains and the antisera or antibodies thereof were administered via intraperitoneal injection 10 minutes before antigen administration. On day 15, day 17, and day 19, intraperitoneal administration was performed without antigen administration. On day 19, the animals were sacrificed 2 hours after the administration (FIG. 16). 50 μg of anti-C terminus IgG was administered via intranasal instillation or intraperitoneal injection 30 minutes before the antigen administration on day 14, day 16, and day 18. 24 hours after the last administration, the animals were sacrificed (FIG. 26). The asthma and rhinitis models constructed in Example 7 were treated with FL and H2 domain at the concentration of 20 mg/kg in order to investigate whether or not those two HRF receptor binding domains could suppress pathophysiological lesion of asthma and rhinitis. Particularly, after cardiac blood collection in the animal model constructed in Example 7, bronchoalveolar lavage was performed. The airway was opened and a 20-gauge intravascular tube catheter was inserted through the opened airway, through which 0.8 ml of PBS containing 2% FBS was slowly injected three times and then recovered. The recovery rate was at least 80% and the recovered washing solution was centrifuged at 4° C. for 15 minutes at 1,000×g. The obtained supernatant was used for the detection of cytokine such as IL-5 or for the detection of TCTP protein. In the meantime, the precipitate was resuspended in 100 ? of PBS containing 2% FBS. The number of the inflammatory cells infiltrated in the washing solution was counted by using HEMAVET 950FS (Drew Scientific). Particularly, upon completion of the experiment in Example 7, the mixture of zoletil (250 mg/kg) and rompun (50 mg/kg) was administered to the mouse via intraperitoneal injection to sacrifice the animal. 0.7˜0.8 mL of blood was collected from the heart and placed in a heparinized tube. The blood sample stood at room temperature for 30 minutes˜1 hour, followed by centrifugation at 1,000×g for 15 minutes to obtain plasma. The level of ovalbumin-specific IgE in the plasma was measured by ELISA. 100 μg of ovalbumin was dissolved in 0.05 M carbonate buffer (pH 9.6), which was distributed in a 96-well ELISA plate, followed by coating at 4° C. for overnight. Non-specific reaction was blocked by reacting the plate with TBS containing 1% BSA at room temperature for 30 minutes. The plasma sample was diluted (1:100), followed by reaction at room temperature for 1 hour, which was then washed with TBS containing 0.1% Tween-20. The […] anti-mouse IgE (SouthernBiotech) was diluted (1:8000), followed by reaction at room temperature for 1 hour. Then, the mixture was washed. TMB was treated thereto at room temperature. 10 minutes later, the reaction was terminated by adding 0.2 M H2SO4. Then, OD450 was measured with an ELISA reader. Particularly, bronchoalveolar lavage fluid was collected from the asthma and rhinitis animal models constructed in Example 7. The chest was dissected and the lung was extracted, which was washed with 4° C. PBS. The lung was cut to the appropriate size. Some of the lung pieces were fixed in PBS containing 4% paraformaldehyde (PFA) at room temperature via o/n fixation. […]

For assay [3], the target named is T1, Del-N11dTCTP (Rattus norvegicus, UniProt P63029).
T1 construct: made in house
T1 sequence (P63029 11-172 limits assumed): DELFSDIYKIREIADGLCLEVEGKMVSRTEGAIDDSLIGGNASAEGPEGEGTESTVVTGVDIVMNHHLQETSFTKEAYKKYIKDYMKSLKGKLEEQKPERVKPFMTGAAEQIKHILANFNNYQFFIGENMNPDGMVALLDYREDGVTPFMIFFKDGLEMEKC
Description: Inhibition of Del-N11dTCTP-induced IL-8 secretion by domain peptides in BEAS-2B cells. The assay is classed as cell-based. The conditions noted are these: Del-N11dTCTP 70 nM, peptide molar ratios 0~1, 24 hours, ELISA. How it is done: To investigate inhibitory effect of FL domain, Helix 2 domain, and Helix 3 domain on Del-N11dTCTP, the inventors synthesized FL domain (Ac-[…]-NH2) (SEQ. ID. NO: 1), Helix 2 domain (Ac-[…]-NH2) (SEQ. ID. NO: 11), and Helix 3 domain (Ac-[…]-NH2) (SEQ. ID. NO: 22) by using the synthetic peptides prepared with NH2-terminal acetylation and COOH-terminal amidation, followed by purification.
Particularly, BEAS-2B cells were treated with Del-N11dTCTP (70 nM) by the same manner as described in Experimental Example 1. At this time, the synthesized FL domain, Helix 2 domain, and Helix 3 domain were treated to the cells at different molar ratios (0˜1), followed by reaction for 30 minutes. Then, Del-N11dTCTP was added thereto. 24 hours later, the supernatant was obtained and the released IL-8 was quantified by ELISA.
For orientation: ELISA stands for enzyme-linked immunosorbent assay.

Entries after “also recorded” stand apart in the source; their conditions may differ.

On to “Ac-SRTEGAIDDSLIGGNASAEGPEGEGTESTVVT-NH2 [FL domain, ID; NO: 1]”, for which the “IL-5 secretion in bronchoalveolar lavage fluid” value in assay [1] (1 mg/kg) is listed as “could inhibit IL-5 secretion”. For the same substance, in assay [1] (1 mg/kg and 20 mg/kg), the “inflammatory cells infiltrated in bronchoalveolar lavage fluid, dose dependence” value is listed as “reduced FL domain dose-dependently”. Besides, in assay [1] (various concentrations (1 and 20 mg/kg)), the “level of ovalbumin-specific IgE in plasma, dose dependence” value was “reduced by the treatment of FL domain dose-dependently”. Besides, in assay [2], the “inflammatory cells in bronchoalveolar lavage fluid (total cell number, leukocyte number)” value is given as “significantly lower” and the “level of IL-5 in bronchoalveolar lavage fluid” value is recorded as “reduced”. The “level of ovalbumin-specific IgE in plasma” value in assay [2] (20 mg/kg, ELISA, vs positive control) was “reduced”. Besides, the “number of total cells and level of lymphocytes in bronchoalveolar lavage fluid” value in assay [2] (20 mg/kg, p<0.01) is recorded as “significantly reduced”. In addition, in assay [2] (vs positive control), the “level of TCTP dimer (approximately 45 kDa) in bronchoalveolar lavage fluid, immunoblotting” value was “reduced” and the “phospho-IκBα in lung tissue, immunoblotting” value is listed as “decreased”. Moreover, in assay [3], the “inhibition of IL-8 secretion induced by Del-N11dTCTP” value is recorded as “inhibited IL-8 secretion better than Helix 3 domain; also recorded: inhibited more strongly”.
As for “Ac-TKEAYKKYIKDYMKSLKGKLEEQKP-NH2 [Helix 2 domain, ID; NO: 11]”, in assay [2], the “inflammatory cells in bronchoalveolar lavage fluid (total cell number, leukocyte number)” value is given as “decreased” and the “level of IL-5 in bronchoalveolar lavage fluid” value was “reduced”. For the same substance, the “inhibition of IL-8 secretion induced by Del-N11dTCTP” value in assay [3] is reported as “inhibited IL-8 secretion better than Helix 3 domain; also recorded: inhibited more strongly”.

The record behind these values is US11518805B2, “Binding inhibitor between TCTP dimer type IgE-dependent histamine releasing factor and receptor thereof, and use thereof” (EWHA UNIVERSITY—INDUSTRY COLLABORATION FOUNDATION, priority 2014, dated 2022).
